Literature values in patent publication US12171869B2, “Intracameral drug delivery depots” (Incept, LLC., priority 2016, dated 2024).
Several values for one entry are separate records, joined by “and”; a condition that tells them apart may be missing. Equal values may be shown once. One block for each compound: values may come before it.

Legend:
[1] = eye drop studies in humans (Faulkner et al., 2010; Martinez-de-la-Casa et al., 2012)
beagle = conditions: 0.004% once a day, normal healthy beagles, 5 treatment days (Carvalho et al., 2006)
[2] = intracameral administration, clinical studies (Charters 2016); 10 μg dose

travoprost free acid Cmax [1]: ~2 ng/mL and ~3 ng/mL
Compound: O=C(O)CCC/C=C\C[C@@H]1[C@@H](/C=C/[C@@H](O)COc2cccc(C(F)(F)F)c2)[C@H](O)C[C@@H]1O [travoprost free acid]

Compound: CC(C)OC(=O)CCC/C=C\C[C@@H]1[C@@H](/C=C/[C@@H](O)COc2cccc(C(F)(F)F)c2)[C@H](O)C[C@@H]1O [travoprost, isopropyl (Z)-7-[(1R,2R,3R,5 S)-3,5-dihydroxy-2-[(1E,3R)-3-hydroxy-4-[(α,α,α-trifluoro-m-tolyl)oxy]-1-butenyl]cyclopentyl]-5-heptenoate]
hyperemia (beagle): hyperemia for the entire treatment period

Compound: CCNC(=O)CCC/C=C\C[C@@H]1[C@@H](/C=C/[C@@H](O)CCc2ccccc2)[C@H](O)C[C@@H]1O [bimatoprost]
duration of IOP reduction [2]: up to 4 months
